Structures are written as SMILES.

The assay deals with T1, D3R-ELucC (Homo sapiens, UniProt P35462).
T1 construct: gene DRD3
Briefly: cell-based. Particulars: HEK-293T, read-out: β-Arrestin2 Recruitment / Emax [%].

T1 sequence (P35462 whole entry): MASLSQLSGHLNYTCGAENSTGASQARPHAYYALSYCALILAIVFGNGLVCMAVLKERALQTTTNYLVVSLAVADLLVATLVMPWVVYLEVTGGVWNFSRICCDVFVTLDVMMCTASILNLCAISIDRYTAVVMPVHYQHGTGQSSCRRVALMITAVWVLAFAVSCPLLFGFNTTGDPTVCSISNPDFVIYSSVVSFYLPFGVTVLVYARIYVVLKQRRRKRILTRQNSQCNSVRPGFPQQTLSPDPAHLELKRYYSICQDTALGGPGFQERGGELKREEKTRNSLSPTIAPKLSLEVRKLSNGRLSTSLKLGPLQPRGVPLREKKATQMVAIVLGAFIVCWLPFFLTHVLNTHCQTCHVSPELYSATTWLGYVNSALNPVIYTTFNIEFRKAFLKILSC

For the compound `CCN1CCC[C@H]1CNC(=O)c1cc(S(N)(=O)=O)ccc1OC` [S-(−)-sulpiride], the Emax is -26 ± 8%.

Source of the values: PMC7503597 (International Journal of Molecular Sciences, 2020).
